Like-named read-outs stand apart in the source and are kept apart here.
Assays:
[1] = target: T1, PKA-R (bovine RIα 92-260; bRIα 92–260) (Bos taurus, UniProt P00514); experiment: biochemical; set-up: focal molography, PKA-R binding to immobilized cAMP analogue, multi-cycle kinetics, 20 °C, buffer A or 50% human serum; settings: 20 °C, mean of three replicates; for koff: read-out: koff [10^-2 s^-1]; for kon: read-out: kon [10^5 M^-1 s^-1]
T1 construct: gene PRKAR1A; expressed in E. coli BL21 (DE3) RIL
Experimental: In order to determine the kinetic parameters of the PKA-R–cAMP interaction, multi cycle kinetic experiments were conducted in both buffer and 50% human serum at 20^◦C with intermediate regeneration. […] The sensor maintained reliable performance in both conditions, with no evidence of non-specific binding in serum. During these experiments, optimal experimental settings were refined iteratively to achieve the ideal flow rates and best transition times between association and dissociation phase. […] To mitigate this, buffer A was supplemented with bovine serum albumin (BSA) at a concentration of 1 mg/mL, which successfully eliminated sample depletion. […] Nevertheless, subtle differences in the association rate constant (kon) and dissociation rate constant (koff) are evident between the two media. These variations likely stem from the complex biological environment in serum, where interactions with additional serum components may slightly alter the binding dynamics. To ensure that the extracted kinetic parameters accurately represent the specific PKA-R–cAMP interaction, only the initial 15% of the dissociation phase was used to determine koff, thereby minimizing the influence of incomplete dissociation due to the residual sticking of the protein to the surface. Table 2 summarizes the triplicate kinetic measurements for both 6-AH-cAMP and 8-AHA-cAMP in buffer and serum. The equilibrium dissociation constants (KD) remain in the nanomolar range under all conditions. In this study, we use focal molography to investigate the interaction between the cAMP binding domain A of the bovine R subunit Iα of PKA (bRIα 92–260) (PKA-R) and cyclic AMP (cAMP) analogues in both buffer and 50% human serum. The R-subunit inhibits protein kinase activity of the catalytic subunit of PKA by direct binding. By quantifying kinetic and thermodynamic parameters across a physiological temperature range, we examine how the biological environment alters the enthalpic and entropic contributions to binding.

[2] = target: T1, PKA-R (bovine RIα 92-260; bRIα 92–260); experiment: biochemical; set-up: Focal molography, immobilised cAMP analogue, PKA-R as analyte; KD at 293 K from van't Hoff fit; settings: 293 K, van't Hoff fit
Source text: In this study, we use focal molography to investigate the interaction between the cAMP binding domain A of the bovine R subunit Iα of PKA (bRIα 92–260) (PKA-R) and cyclic AMP (cAMP) analogues in both buffer and 50% human serum. The R-subunit inhibits protein kinase activity of the catalytic subunit of PKA by direct binding. By quantifying kinetic and thermodynamic parameters across a physiological temperature range, we examine how the biological environment alters the enthalpic and entropic contributions to binding. […] In order to determine the kinetic parameters of the PKA-R–cAMP interaction, multi cycle kinetic experiments were conducted in both buffer and 50% human serum at 20^◦C with intermediate regeneration. […] The sensor maintained reliable performance in both conditions, with no evidence of non-specific binding in serum. During these experiments, optimal experimental settings were refined iteratively to achieve the ideal flow rates and best transition times between association and dissociation phase. […] To mitigate this, buffer A was supplemented with bovine serum albumin (BSA) at a concentration of 1 mg/mL, which successfully eliminated sample depletion. […] Fig 8 summarizes the resulting thermodynamic parameters calculated at 293 K (see S1 Table for data). For both ligands, binding to PKA-R remains highly favorable in both media, with ΔG values around −10 kcal/mol yielding similar affinities. However, the underlying driving forces appear to differ between buffer and serum. […] In contrast, the interaction in 50% serum becomes more enthalpy driven for both ligands. For 6-AH-cAMP, ΔH drops to −7.4 kcal/mol, while the entropic contribution increases to −2.6 kcal/mol. For 8-AHA-cAMP, the transition is even more striking: binding becomes entirely enthalpy driven in serum, with an unfavorable entropy change (−T ΔS = 1.2 kcal/mol) and a strong enthalpic contribution (ΔH = −11.3 kcal/mol). All thermodynamic parameters were extracted from the linear fits to the van’t Hoff plots via standard error propagation from the covariance matrix returned by the linear regression. Specifically, standard deviations for ΔH, ΔS, and ΔG were calculated using the variances and covariances of the fitted slope and intercept. The reported KD values represent the predicted equilibrium dissociation constants at 293 K based on the linear fits, with associated uncertainties derived from the propagated variance in ln(KD).

[3] = 50% human serum, read-out: KD [nM] Focal Mol. (Serum)
[4] = buffer, read-out: KD [nM] Focal Mol. (Buffer)

T1 sequence (P00514 93-261): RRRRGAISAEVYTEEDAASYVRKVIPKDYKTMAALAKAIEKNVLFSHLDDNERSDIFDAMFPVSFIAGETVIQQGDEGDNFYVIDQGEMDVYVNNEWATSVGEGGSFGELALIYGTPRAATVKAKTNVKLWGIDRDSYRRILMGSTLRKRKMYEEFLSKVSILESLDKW

| Compound | Kd ([1]; 50% human serum) [nM] | koff ([1]; 50% human serum) [s⁻¹] | kon ([1]; 50% human serum) [M⁻¹ s⁻¹] | koff ([1]; buffer A) [s⁻¹] | kon ([1]; buffer A) [M⁻¹ s⁻¹] | Kd [2, 3] [nM] | Kd [2, 4] [nM] |
| --- | --- | --- | --- | --- | --- | --- | --- |
| NCCCCCCNc1ncnc2c1ncn2[C@@H]1O[C@@H]2COP(=O)(O)O[C@H]2[C@H]1O [6-AH-cAMP, N^6-(6-Aminohexyl)adenosine-3^′,5^′-cyclic monophosphate] | 25.4 | 0.0122 | 506000 | 0.013 | 448000 | 36.6 ± 0.4 | 29.5 ± 0.9 |
| NCCCCCCNc1nc2c(N)ncnc2n1[C@@H]1O[C@@H]2COP(=O)(O)O[C@H]2[C@H]1O [8-AHA-cAMP, 8-(6-Aminohexylamino)adenosine-3^′,5^′-cyclic monophosphate] | 33.9 | 0.0165 | 487000 | 0.0129 | 389000 | 31 ± 3.4 | 25.5 ± 2.5 |
